The values that follow come from US12428423B2, “1H-imidazo[4,5-h]quinazoline compound as protein kinase inhibitor” (SHENGKE PHARMACEUTICALS (JIANGSU) LTD., priority 2017, dated 2025).

Experiment [1] has as its system neointimal formation. The following applies: rats; cited from earlier work.
Experiment [2] concerns the target CDK4/cyclin D1 (Homo sapiens (Human), UniProt P11802). Nature of the experiment: Biochemical kinase inhibitory assay, CDK4/cyclin D1. The following applies: recombinant CDK4/cyclin D1; in the presence of 10 μM ATP. The procedure: Potency determination in the biochemical kinase inhibitory assay. Kinase activity assay and IC50 determination. […] The kinase reaction was initiated by the addition of 1 μg (1.5 μM) of recombinant retinoblastoma protein, 5 μM ATP and 10μ Ci γ-32P-ATP. The reaction was incubated at 30° C. for 20 minutes, and the reaction was stopped by the addition of 2× Laemmli sample buffer, heated at 95° C. for three minutes, and dissolved in 12% acrylamide SDS-PAGE for autoradiography. The corresponding phosphorylated substrate protein bands were quantified using a densitometer (Bio-Rad). […] The reaction took place in the presence of 10 μM ATP.

In experiment [3] the target is CDK6/cyclin D1 (Homo sapiens (Human), UniProt Q00534). Nature of the experiment: Biochemical kinase inhibitory assay, CDK6/cyclin D1. The following applies: in the presence of 10 μM ATP. Here is the method:
Potency determination in the biochemical kinase inhibitory assay. Kinase activity assay and IC50 determination. […] The kinase reaction was initiated by the addition of 1 μg (1.5 μM) of recombinant retinoblastoma protein, 5 μM ATP and 10μ Ci γ-32P-ATP. The reaction was incubated at 30° C. for 20 minutes, and the reaction was stopped by the addition of 2× Laemmli sample buffer, heated at 95° C. for three minutes, and dissolved in 12% acrylamide SDS-PAGE for autoradiography. The corresponding phosphorylated substrate protein bands were quantified using a densitometer (Bio-Rad). […] The compounds disclosed herein were tested in a similar manner for their inhibitory activities against CDK6/cyclin D1, CDK2/cyclin A, CDK5/cyclin P25, CDK9/cyclin Ti, CDK7/cyclin H and CDK19/cyclin C. […] The reaction took place in the presence of 10 μM ATP.

Bounds are passed on as bounds.

Chain of CDK4/cyclin D1 (P11802 whole entry): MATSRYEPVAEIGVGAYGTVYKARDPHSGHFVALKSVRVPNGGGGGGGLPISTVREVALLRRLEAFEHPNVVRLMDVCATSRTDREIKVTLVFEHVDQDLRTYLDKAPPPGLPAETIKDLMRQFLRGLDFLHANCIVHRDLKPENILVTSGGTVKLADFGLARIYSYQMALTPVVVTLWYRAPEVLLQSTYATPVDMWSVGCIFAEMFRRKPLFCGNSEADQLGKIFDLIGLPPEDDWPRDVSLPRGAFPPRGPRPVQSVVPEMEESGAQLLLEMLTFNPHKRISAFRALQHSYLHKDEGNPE
Chain of CDK4/cyclin D1 (P24385 whole entry partner): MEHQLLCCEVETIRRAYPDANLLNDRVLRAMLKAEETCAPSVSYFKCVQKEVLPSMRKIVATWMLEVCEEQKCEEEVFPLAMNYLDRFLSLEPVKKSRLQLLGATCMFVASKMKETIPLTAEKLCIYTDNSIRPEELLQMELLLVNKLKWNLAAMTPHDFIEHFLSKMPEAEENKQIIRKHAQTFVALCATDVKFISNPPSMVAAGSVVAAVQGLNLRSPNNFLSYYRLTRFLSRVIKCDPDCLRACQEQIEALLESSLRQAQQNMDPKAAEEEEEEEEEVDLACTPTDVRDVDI
Chain of CDK6/cyclin D1 (Q00534 whole entry): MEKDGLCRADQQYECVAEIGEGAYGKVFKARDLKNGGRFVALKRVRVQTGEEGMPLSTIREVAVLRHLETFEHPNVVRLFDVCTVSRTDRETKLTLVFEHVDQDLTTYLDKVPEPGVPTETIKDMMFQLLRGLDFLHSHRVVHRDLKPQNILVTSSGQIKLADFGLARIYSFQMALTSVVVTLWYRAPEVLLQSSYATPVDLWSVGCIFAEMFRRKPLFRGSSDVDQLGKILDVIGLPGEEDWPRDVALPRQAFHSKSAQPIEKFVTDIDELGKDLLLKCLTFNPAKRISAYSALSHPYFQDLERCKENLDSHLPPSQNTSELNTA
Chain of CDK6/cyclin D1 (P24385 whole entry partner): as the sequence (P24385 whole entry partner) above

Regarding `COc1ccc(CNc2nc(N(CCO)CCO)nc3c2ncn3C(C)C)cc1` [CVT-313], the “inhibition of neointimal formation” value in experiment [1] is on record as “more than 80%”.
As for `CC(C)N1CCN(c2ccc(Nc3ncc4ccc5ncn(C(C)C)c5c4n3)nn2)CC1` [Compound I-41], the IC50 in experiment [2] and in experiment [3] was 0.05 to 0.1 µM in each case.
`CCn1cnc2ccc3cnc(Nc4ccc(N5CCNCC5)cn4)nc3c21` [Compound I-42]: the IC50 in experiment [2] and in experiment [3] was 0.01 to 0.05 µM each time.
As to `CCn1cnc2ccc3cnc(Nc4ccc(N5CCN(C)CC5)cn4)nc3c21` [Compound I-43], the IC50 in experiment [2] and in experiment [3] was 0.01 to 0.05 µM throughout.
In the case of `CCn1cnc2ccc3cnc(Nc4ccc(N5C[C@@H](C)O[C@@H](C)C5)cn4)nc3c21` [Compound I-44], the IC50 in experiment [2] and in experiment [3] was 0.01 to 0.05 µM each time.
Turning to `CCn1cnc2ccc3cnc(Nc4ccc(N5CCOCC5)cn4)nc3c21` [Compound I-45], the IC50 in experiment [2] and in experiment [3] was 0.01 to 0.05 µM each time.
On to `CCn1cnc2ccc3cnc(Nc4ccc(N5CCOC(C)C5)cn4)nc3c21` (stereo not shown) [Compound I-46], for which the IC50 in experiment [2] and in experiment [3] was 0.01 to 0.05 µM in each case.
On to `c1cc(Nc2ncc3ccc4ncn(C5CC5)c4c3n2)ncc1N1CCNCC1` [Compound I-47], for which the IC50 in experiment [2] and in experiment [3] was 0.002 to 0.01 µM throughout.
`Cc1cc(Nc2ncc3ccc4ncn(C5CC5)c4c3n2)ncc1N1CCNCC1` [Compound I-48]: the IC50 in experiment [2] and in experiment [3] was 0.01 to 0.05 µM in each case.
As for `c1cc(Nc2ncc3ccc4ncn(C5CC5)c4c3n2)ncc1N1CCOCC1` [Compound I-49], the IC50 in experiment [2] and in experiment [3] was 0.01 to 0.05 µM each time.
As for `Cc1cc(Nc2ncc3ccc4ncn(C5CC5)c4c3n2)ncc1N1CCOCC1` [Compound I-50], the IC50 in experiment [2] and in experiment [3] was 0.01 to 0.05 µM throughout.
Take `Cc1nc(Nc2ncc3ccc4ncn(C5CC5)c4c3n2)ccc1N1CCOCC1` [Compound I-51]: the IC50 in experiment [2] and in experiment [3] was 0.01 to 0.05 µM throughout.
Take `c1cc(Nc2ncc3ccc4ncn(C5CCC5)c4c3n2)ncc1N1CCNCC1` [Compound I-52]: the concentration for half-maximal inhibition (IC50) in experiment [2] and in experiment [3] was 0.01 to 0.05 µM in each case.
With `Cc1cc(Nc2ncc3ccc4ncn(C5CCC5)c4c3n2)ncc1N1CCNCC1` [Compound I-53], the IC50 in experiment [2] and in experiment [3] was 0.01 to 0.05 µM in each case.
Consider `Cc1nc(Nc2ncc3ccc4ncn(C5CCC5)c4c3n2)ccc1N1CCNCC1` [Compound I-54], for which the IC50 in experiment [2] and in experiment [3] was 0.01 to 0.05 µM throughout.
In the case of `c1cc(Nc2ncc3ccc4ncn(C5CCC5)c4c3n2)ncc1N1CCOCC1` [Compound I-55], the IC50 in experiment [2] and in experiment [3] was 0.01 to 0.05 µM throughout.
Turning to `Cc1cc(Nc2ncc3ccc4ncn(C5CCC5)c4c3n2)ncc1N1CCOCC1` [Compound I-56], the half-inhibitory concentration (IC50) in experiment [2] and in experiment [3] was 0.01 to 0.05 µM in each case.
Turning to `c1cc(Nc2ncc3ccc4ncn(C5CCCC5)c4c3n2)ncc1N1CCNCC1` [Compound I-57], the IC50 in experiment [2] and in experiment [3] was < 0.002 µM each time.
`Cc1cc(Nc2ncc3ccc4ncn(C5CCCC5)c4c3n2)ncc1N1CCNCC1` [Compound I-58]: the IC50 in experiment [2] and in experiment [3] was 0.002 to 0.01 µM each time.
Regarding `Cc1nc(Nc2ncc3ccc4ncn(C5CCCC5)c4c3n2)ccc1N1CCNCC1` [Compound I-59], the IC50 in experiment [2] and in experiment [3] was 0.002 to 0.01 µM each time.
In the case of `c1cc(Nc2ncc3ccc4ncn(C5CCCC5)c4c3n2)ncc1N1CCOCC1` [Compound I-60], the IC50 in experiment [2] and in experiment [3] was 0.002 to 0.01 µM in each case.
Turning to `Cc1cc(Nc2ncc3ccc4ncn(C5CCCC5)c4c3n2)ncc1N1CCOCC1` [Compound I-61], the IC50 in experiment [2] and in experiment [3] was 0.002 to 0.01 µM in each case.
Regarding `Cc1cc2ncn(C(C)C)c2c2nc(Nc3ccc(N4CCNCC4)cn3)ncc12` [Compound I-62], the IC50 in experiment [2] and in experiment [3] was 0.05 to 0.1 µM each time.
In the case of `Cc1cc(Nc2ncc3c(C)cc4ncn(C(C)C)c4c3n2)ncc1N1CCNCC1` [Compound I-63], the IC50 in experiment [2] and in experiment [3] was 0.05 to 0.1 µM throughout.
Regarding `Cc1nc(Nc2ncc3c(C)cc4ncn(C(C)C)c4c3n2)ccc1N1CCNCC1` [Compound I-64], the concentration for half-maximal inhibition (IC50) in experiment [2] and in experiment [3] was 0.05 to 0.1 µM throughout.
Turning to `Cc1cc2ncn(C(C)C)c2c2nc(Nc3ccc(N4CCOCC4)cn3)ncc12` [Compound I-65], the IC50 in experiment [2] and in experiment [3] was 0.05 to 0.1 µM in each case.
Turning to `Cc1cc2ncn(C(C)C)c2c2nc(Nc3ccc(N4CCOC(C)C4)cn3)ncc12` (stereo not shown) [Compound I-66], the IC50 in experiment [2] and in experiment [3] was 0.05 to 0.1 µM each time.
As to `CC(C)n1cnc2c(Br)cc3cnc(Nc4ccc(N5CCNCC5)cn4)nc3c21` [Compound I-67], the IC50 in experiment [2] and in experiment [3] was 0.002 to 0.01 µM each time.
With `Cc1cc(Nc2ncc3cc(Br)c4ncn(C(C)C)c4c3n2)ncc1N1CCNCC1` [Compound I-68], the IC50 in experiment [2] and in experiment [3] was 0.002 to 0.01 µM throughout.
In the case of `Cc1nc(Nc2ncc3cc(Br)c4ncn(C(C)C)c4c3n2)ccc1N1CCNCC1` [Compound I-69], the IC50 in experiment [2] and in experiment [3] was 0.002 to 0.01 µM each time.
In the case of `CC(C)n1cnc2c(Br)cc3cnc(Nc4ccc(N5CCOCC5)cn4)nc3c21` [Compound I-70], the IC50 in experiment [2] and in experiment [3] was 0.002 to 0.01 µM each time.
As to `CC(C)n1cnc2c(Br)cc3cnc(Nc4ccc(N5CCC6(CC5)CNC6)cn4)nc3c21` [Compound I-71], the IC50 in experiment [2] and in experiment [3] was 0.01 to 0.05 µM each time.
On to `Cc1cc2cnc(Nc3ccc(N4CCNCC4)cn3)nc2c2c1ncn2C(C)C` [Compound I-72], for which the IC50 in experiment [2] and in experiment [3] was 0.002 to 0.01 µM in each case.
Turning to `Cc1cc(Nc2ncc3cc(C)c4ncn(C(C)C)c4c3n2)ncc1N1CCNCC1` [Compound I-73], the IC50 in experiment [2] and in experiment [3] was 0.002 to 0.01 µM in each case.
Consider `Cc1nc(Nc2ncc3cc(C)c4ncn(C(C)C)c4c3n2)ccc1N1CCNCC1` [Compound I-74], for which the IC50 in experiment [2] and in experiment [3] was 0.002 to 0.01 µM throughout.
For the compound `Cc1cc2cnc(Nc3ccc(N4CCOCC4)cn3)nc2c2c1ncn2C(C)C` [Compound I-75], the half-maximal inhibitory concentration (IC50) in experiment [2] and in experiment [3] was 0.002 to 0.01 µM each time.
In the case of `Cc1cc(Nc2ncc3cc(C)c4ncn(C(C)C)c4c3n2)ncc1N1CCOCC1` [Compound I-76], the IC50 in experiment [2] and in experiment [3] was 0.01 to 0.05 µM in each case.

As a reminder, the IC50 is the point on the concentration scale where inhibition reaches its midpoint.
